Data set [1] concerns HIV-1 CZA97.
In data set [2] the test system is HIV-1 MN.
Data set [3] relates to HIV-1 SF162.
Data set [4] deals with HIV-1 DU422.
The test system of data set [5] is chymotrypsin. In words: Enzymatic hydrolysis assay with chymotrypsin. The format is in vitro ADME. The note with it: isolated enzyme chymotrypsin.
The test system of data set [6] is HIV-1. Particulars: across the strains tested, compared with 1.

Bounds are passed on as bounds.

By IC50 is commonly meant the concentration that gives 50% inhibition. Lower therefore signals higher potency. Regarding Enfuvirtide, the IC50 in data set [1] came to 0.941 ± 0.328 µM; in data set [2], 0.0065 ± 0.0006 µM; in data set [3], 0.0239 ± 0.0021 µM; in data set [4] it was 0.056 ± 0.0016 µM.

In the case of MTWEEWDKKIEEYTKKIEELIγKS [Peptide 3], the “% remaining after 10 mins” value in data set [5] came out at 17.6%. The “increase in antiviral activity relative to peptide 1” value in data set [6] is less than 2 fold.

With “MTWXEWDXKIEEYTKKIEELIγKS (sidechain bridge or staple) [Peptide 4]”, in data set [5], the “% remaining after 10 mins” value amounted to 57.2%.
